Data from PubChem BioAssay AID2060330 (Molecular Pharmacology Branch, DTP, NCI, 2025).
pIC50: −log10 of the molar value.

System: LG0703-F948-PDC spheroids with HUVEC/MSC, viability
Test: Anticancer human tumor LG0703-F948-PDC patient-derived lung adenocarcinoma cell line growth inhibition [IpAb]
Conditions: for pIC50: curve of first compound; for viability, T/C: stronger effect = lower value
Summary of the method: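 Combinations with ipatasertib or abemaciclib were tested on tumour spheroids holding HUVEC (25%) and MSC (15%) alongside 60% malignant cells. Top concentration was at or near clinical Cmax (10 microM if undefined), descending in half-log steps.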

[1] = second compound 0.01 µM, first compound 0.0316 µM
[2] = second compound 0.01 µM, first compound 0.1 µM
[3] = second compound 0.01 µM, first compound 0.316 µM
[4] = second compound 0.01 µM, first compound 1 µM
[5] = second compound 0.01 µM, first compound 3.16 µM
[6] = second compound 0.01 µM, first compound 10 µM
[7] = second compound 0.0316 µM, first compound 0.0316 µM
[8] = second compound 0.0316 µM, first compound 0.1 µM
[9] = second compound 0.0316 µM, first compound 0.316 µM
[10] = second compound 0.0316 µM, first compound 1 µM
[11] = second compound 0.0316 µM, first compound 3.16 µM
[12] = second compound 0.0316 µM, first compound 10 µM
[13] = second compound 0.1 µM, first compound 0.0316 µM
[14] = second compound 0.1 µM, first compound 0.1 µM
[15] = second compound 0.1 µM, first compound 0.316 µM
[16] = second compound 0.1 µM, first compound 1 µM
[17] = second compound 0.1 µM, first compound 3.16 µM
[18] = second compound 0.1 µM, first compound 10 µM
[19] = second compound 0.316 µM, first compound 0.0316 µM
[20] = second compound 0.316 µM, first compound 0.1 µM
[21] = second compound 0.316 µM, first compound 0.316 µM
[22] = second compound 0.316 µM, first compound 1 µM
[23] = second compound 0.316 µM, first compound 3.16 µM
[24] = second compound 0.316 µM, first compound 10 µM
[25] = second compound 1 µM, first compound 0.0316 µM
[26] = second compound 1 µM, first compound 0.1 µM
[27] = second compound 1 µM, first compound 0.316 µM
[28] = second compound 1 µM, first compound 1 µM
[29] = second compound 1 µM, first compound 3.16 µM
[30] = second compound 1 µM, first compound 10 µM
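Further: spheroids exposed to compounds for seven days before readout.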
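Wherever viability, T/C is given: T/C percent relative to DMSO vehicle wells set as 100% viability.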

## C=CC(=O)N1CCN(c2nc(=O)n(-c3c(C)ccnc3C(C)C)c3nc(-c4c(O)cccc4F)c(F)cc23)C(C)C1 (stereo not given) + CCN1CCN(Cc2ccc(Nc3ncc(F)c(-c4cc(F)c5nc(C)n(C(C)C)c5c4)n3)nc2)CC1
Second compound 0.01 µM
  pIC50: < 5.00
Second compound 0.0316 µM
  pIC50: < 5.00
Second compound 0.1 µM
  pIC50: < 5.00
Second compound 0.316 µM
  pIC50: < 5.00
Second compound 1 µM
  pIC50: < 5.00
[1]
  viability, T/C: 110%
[2]
  viability, T/C: 110%
[3]
  viability, T/C: 107%
[4]
  viability, T/C: 121%
[5]
  viability, T/C: 111%
[6]
  viability, T/C: 79.5%
[7]
  viability, T/C: 95.5%
[8]
  viability, T/C: 92%
[9]
  viability, T/C: 94.2%
[10]
  viability, T/C: 104%
[11]
  viability, T/C: 99.2%
[12]
  viability, T/C: 75.9%
[13]
  viability, T/C: 86.6%
[14]
  viability, T/C: 95.5%
[15]
  viability, T/C: 91.2%
[16]
  viability, T/C: 94.5%
[17]
  viability, T/C: 91.8%
[18]
  viability, T/C: 73%
[19]
  viability, T/C: 88.1%
[20]
  viability, T/C: 85.6%
[21]
  viability, T/C: 82.3%
[22]
  viability, T/C: 97.7%
[23]
  viability, T/C: 95.6%
[24]
  viability, T/C: 79.6%
[25]
  viability, T/C: 89.8%
[26]
  viability, T/C: 82.9%
[27]
  viability, T/C: 46.8%
[28]
  viability, T/C: 96.6%
[29]
  viability, T/C: 95.7%
[30]
  viability, T/C: 73.1%

## Cn1ncc(Cl)c1-c1cc(C(=O)NC(CN)Cc2cccc(F)c2)sc1Cl (stereo not given) + CCN1CCN(Cc2ccc(Nc3ncc(F)c(-c4cc(F)c5nc(C)n(C(C)C)c5c4)n3)nc2)CC1
Second compound 0.01 µM
  pIC50: 6.19
Second compound 0.0316 µM
  pIC50: 6.40
Second compound 0.1 µM
  pIC50: 6.43
Second compound 0.316 µM
  pIC50: 6.46
Second compound 1 µM
  pIC50: 6.56
[1]
  viability, T/C: 88%
[2]
  viability, T/C: 67.6%
[3]
  viability, T/C: 59.3%
[4]
  viability, T/C: 49.3%
[5]
  viability, T/C: 21.5%
[6]
  viability, T/C: 0.13%
[7]
  viability, T/C: 86.1%
[8]
  viability, T/C: 63.7%
[9]
  viability, T/C: 51.3%
[10]
  viability, T/C: 45.9%
[11]
  viability, T/C: 13.3%
[12]
  viability, T/C: 0.13%
[13]
  viability, T/C: 86.3%
[14]
  viability, T/C: 68.8%
[15]
  viability, T/C: 44.4%
[16]
  viability, T/C: 46.4%
[17]
  viability, T/C: 13.5%
[18]
  viability, T/C: 0.13%
[19]
  viability, T/C: 86.1%
[20]
  viability, T/C: 70%
[21]
  viability, T/C: 41.9%
[22]
  viability, T/C: 48.7%
[23]
  viability, T/C: 7.04%
[24]
  viability, T/C: 0.12%
[25]
  viability, T/C: 77.9%
[26]
  viability, T/C: 71.5%
[27]
  viability, T/C: 37.4%
[28]
  viability, T/C: 40.1%
[29]
  viability, T/C: 1.07%
[30]
  viability, T/C: 0.17%

## Cn1ncnc1[C@H]1c2n[nH]c(=O)c3cc(F)cc(c23)N[C@@H]1c1ccc(F)cc1 + CCN1CCN(Cc2ccc(Nc3ncc(F)c(-c4cc(F)c5nc(C)n(C(C)C)c5c4)n3)nc2)CC1
Second compound 0.01 µM
  pIC50: < 7.00
Second compound 0.0316 µM
  pIC50: < 7.00
Second compound 0.1 µM
  pIC50: < 7.00
Second compound 0.316 µM
  pIC50: < 7.00
Second compound 1 µM
  pIC50: < 7.00
Second compound 0.01 µM, first compound 0.000316 µM
  viability, T/C: 104%
Second compound 0.01 µM, first compound 0.001 µM
  viability, T/C: 98%
Second compound 0.01 µM, first compound 0.00316 µM
  viability, T/C: 99.2%
Second compound 0.01 µM, first compound 0.01 µM
  viability, T/C: 97.3%
[1]
  viability, T/C: 91.2%
[2]
  viability, T/C: 88.8%
Second compound 0.0316 µM, first compound 0.000316 µM
  viability, T/C: 94%
Second compound 0.0316 µM, first compound 0.001 µM
  viability, T/C: 91.4%
Second compound 0.0316 µM, first compound 0.00316 µM
  viability, T/C: 79.9%
Second compound 0.0316 µM, first compound 0.01 µM
  viability, T/C: 86.1%
[7]
  viability, T/C: 92.6%
[8]
  viability, T/C: 83.4%
Second compound 0.1 µM, first compound 0.000316 µM
  viability, T/C: 79.5%
Second compound 0.1 µM, first compound 0.001 µM
  viability, T/C: 88.8%
Second compound 0.1 µM, first compound 0.00316 µM
  viability, T/C: 73%
Second compound 0.1 µM, first compound 0.01 µM
  viability, T/C: 75.2%
[13]
  viability, T/C: 74.4%
[14]
  viability, T/C: 84.3%
Second compound 0.316 µM, first compound 0.000316 µM
  viability, T/C: 85.6%
Second compound 0.316 µM, first compound 0.001 µM
  viability, T/C: 80.6%
Second compound 0.316 µM, first compound 0.00316 µM
  viability, T/C: 67.7%
Second compound 0.316 µM, first compound 0.01 µM
  viability, T/C: 86.8%
[19]
  viability, T/C: 84.1%
[20]
  viability, T/C: 76.7%
Second compound 1 µM, first compound 0.000316 µM
  viability, T/C: 82.2%
Second compound 1 µM, first compound 0.001 µM
  viability, T/C: 72.7%
Second compound 1 µM, first compound 0.00316 µM
  viability, T/C: 43.4%
Second compound 1 µM, first compound 0.01 µM
  viability, T/C: 68.9%
[25]
  viability, T/C: 74.4%
[26]
  viability, T/C: 80.2%
